{
  "source": "PubChem BioAssay AID256",
  "about": "(DTP/NCI, 2004)",
  "system": "CD2F1 mice, L1210 leukemia ip, survival T/C",
  "test": "NCI In Vivo Anticancer Drug Screen. Data for tumor model L1210 Leukemia (intraperitoneal) in CD2F1 (CDF1) mice",
  "conditions": "endpoint: mean survival time, higher = longer survival",
  "method_in_brief": "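Each value reflects a quotient of treated over vehicle control outcomes in mice with a transplanted tumor.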",
  "key": {"[1]": {"conditions": "dose: 100.0 mg/kg/injection, schedule: Q04DX003 (ip), vehicle: saline with Tween-80"}, "[2]": {"conditions": "dose: 200.0 mg/kg/injection, schedule: Q04DX003 (ip), vehicle: saline with Tween-80"}, "[3]": {"conditions": "dose: 400.0 mg/kg/injection, schedule: Q04DX003 (ip), vehicle: saline with Tween-80"}, "[4]": {"conditions": "dose: 100.0 mg/kg/injection, schedule: Q01DX001 (ip), vehicle: saline with Tween-80"}, "[5]": {"conditions": "dose: 100.0 mg/kg/injection, schedule: Q01DX009 (ip), vehicle: saline with Tween-80"}, "[6]": {"conditions": "dose: 100.0 mg/kg/injection, schedule: Q04DX002 (ip), vehicle: saline with Tween-80"}, "[7]": {"conditions": "dose: 200.0 mg/kg/injection, schedule: Q01DX001 (ip), vehicle: saline with Tween-80"}, "[8]": {"conditions": "dose: 200.0 mg/kg/injection, schedule: Q01DX009 (ip), vehicle: saline with Tween-80"}, "[9]": {"conditions": "dose: 400.0 mg/kg/injection, schedule: Q01DX009 (ip), vehicle: saline with Tween-80"}},
  "note": "“And” between values parts separate entries of the source, which are not always exact repeats. Equal values may be shown once. Inconclusive results and toxic doses are left out.",
  "data": [
    {"smiles": "Nc1ccc([N+](=O)[O-])c(S(=O)(=O)O)c1", "values": [
      {"measurement": "T/C", "setting": "[1]", "result": "95 % of control"},
      {"measurement": "T/C", "setting": "[2]", "result": "95 % of control"},
      {"measurement": "T/C", "setting": "[3]", "result": "89 % of control"}
    ]},
    {"smiles": "O=c1ccn(C2OC(CO)C(O)C2O)c(=O)[nH]1", "note": "(configuration not stated)", "values": [
      {"measurement": "T/C", "setting": "dose: 12.5 mg/kg/injection, schedule: Q01DX005 (ip), vehicle: Klucel (hydroxypropylcellulose) (HPC)", "result": "103 % of control"},
      {"measurement": "T/C", "setting": "dose: 25.0 mg/kg/injection, schedule: Q01DX005 (ip), vehicle: Klucel (hydroxypropylcellulose) (HPC)", "result": "101 % of control"},
      {"measurement": "T/C", "setting": "dose: 50.0 mg/kg/injection, schedule: Q01DX005 (ip), vehicle: Klucel (hydroxypropylcellulose) (HPC)", "result": "101 % of control"},
      {"measurement": "T/C", "setting": "dose: 100.0 mg/kg/injection, schedule: Q01DX005 (ip), vehicle: Klucel (hydroxypropylcellulose) (HPC)", "result": "110 % of control"},
      {"measurement": "T/C", "setting": "dose: 200.0 mg/kg/injection, schedule: Q01DX005 (ip), vehicle: Klucel (hydroxypropylcellulose) (HPC)", "result": "105 % of control"}
    ]},
    {"smiles": "Cc1cc(C)c(S(=O)(=O)F)cc1C(=O)O", "values": [
      {"measurement": "T/C", "setting": "[4]", "result": "101 % of control"},
      {"measurement": "T/C", "setting": "[5]", "result": "96 % of control and 100 % of control"},
      {"measurement": "T/C", "setting": "[6]", "result": "92 % of control and 104 % of control"},
      {"measurement": "T/C", "setting": "[1]", "result": "107 % of control"},
      {"measurement": "T/C", "setting": "[7]", "result": "95 % of control"},
      {"measurement": "T/C", "setting": "[8]", "result": "93 % of control and 94 % of control"},
      {"measurement": "T/C", "setting": "dose: 200.0 mg/kg/injection, schedule: Q04DX002 (ip), vehicle: saline with Tween-80", "result": "96 % of control and 104 % of control"},
      {"measurement": "T/C", "setting": "[2]", "result": "102 % of control"},
      {"measurement": "T/C", "setting": "[9]", "result": "96 % of control"},
      {"measurement": "T/C", "setting": "dose: 400.0 mg/kg/injection, schedule: Q04DX002 (ip), vehicle: saline with Tween-80", "result": "94 % of control and 102 % of control"},
      {"measurement": "T/C", "setting": "[3]", "result": "100 % of control"}
    ]},
    {"smiles": "CCN(CC)CCCNc1c2ccc(Cl)cc2nc2ccc(OC)nc12", "values": [
      {"measurement": "T/C", "setting": "dose: 50.0 mg/kg/injection, schedule: Q01DX009 (ip), vehicle: saline with Tween-80", "result": "109 % of control"},
      {"measurement": "T/C", "setting": "[5]", "result": "97 % of control"},
      {"measurement": "T/C", "setting": "[8]", "result": "114 % of control"}
    ]},
    {"smiles": "COC(=O)C1C=Cc2ccccc21", "note": "(configuration not stated)", "values": [
      {"measurement": "T/C", "setting": "[5]", "result": "95 % of control"},
      {"measurement": "T/C", "setting": "[8]", "result": "95 % of control"},
      {"measurement": "T/C", "setting": "[9]", "result": "104 % of control"}
    ]},
    {"smiles": "CCOC(=O)Cc1cccc(C)n1", "values": [
      {"measurement": "T/C", "setting": "[5]", "result": "104 % of control"},
      {"measurement": "T/C", "setting": "dose: 100.0 mg/kg/injection, schedule: Q04DX003 (ip), vehicle: saline", "result": "94 % of control"},
      {"measurement": "T/C", "setting": "[8]", "result": "98 % of control"},
      {"measurement": "T/C", "setting": "dose: 200.0 mg/kg/injection, schedule: Q04DX003 (ip), vehicle: saline", "result": "92 % of control"},
      {"measurement": "T/C", "setting": "[9]", "result": "100 % of control"},
      {"measurement": "T/C", "setting": "dose: 400.0 mg/kg/injection, schedule: Q04DX003 (ip), vehicle: saline", "result": "94 % of control"}
    ]},
    {"smiles": "Clc1c(Cl)c(CBr)c(Cl)c(-c2c(Cl)c(Cl)c(Cl)c(CBr)c2Cl)c1Cl", "values": [
      {"measurement": "T/C", "setting": "[1]", "result": "93 % of control"},
      {"measurement": "T/C", "setting": "[2]", "result": "107 % of control"},
      {"measurement": "T/C", "setting": "[3]", "result": "104 % of control"}
    ]},
    {"smiles": "O=C1CCCC2C(=O)CCCC12", "note": "(configuration not stated)", "values": [
      {"measurement": "T/C", "setting": "[5]", "result": "97 % of control"},
      {"measurement": "T/C", "setting": "[8]", "result": "103 % of control"},
      {"measurement": "T/C", "setting": "[9]", "result": "103 % of control"}
    ]},
    {"smiles": "COc1ccccc1N1CCCSC1=Nc1ccccc1", "values": [
      {"measurement": "T/C", "setting": "dose: 100.0 mg/kg/injection, schedule: Q04DX002 (ip), vehicle: saline", "result": "98 % of control"},
      {"measurement": "T/C", "setting": "dose: 200.0 mg/kg/injection, schedule: Q04DX002 (ip), vehicle: saline", "result": "94 % of control"}
    ]},
    {"smiles": "COc1ccc2c(Br)cccc2c1", "values": [
      {"measurement": "T/C", "setting": "dose: 100.0 mg/kg/injection, schedule: Q04DX003 (ip), vehicle: acetone", "result": "102 % of control"},
      {"measurement": "T/C", "setting": "dose: 200.0 mg/kg/injection, schedule: Q04DX003 (ip), vehicle: acetone", "result": "94 % of control"},
      {"measurement": "T/C", "setting": "dose: 400.0 mg/kg/injection, schedule: Q04DX003 (ip), vehicle: acetone", "result": "92 % of control"}
    ]},
    {"smiles": "[S-]c1n[n+](-c2ccccc2)c(-c2ccccc2)s1", "values": [
      {"measurement": "T/C", "setting": "dose: 75.0 mg/kg/injection, schedule: Q01DX001 (ip), vehicle: saline with Tween-80", "result": "95 % of control"},
      {"measurement": "T/C", "setting": "dose: 150.0 mg/kg/injection, schedule: Q01DX001 (ip), vehicle: saline with Tween-80", "result": "96 % of control"},
      {"measurement": "T/C", "setting": "dose: 300.0 mg/kg/injection, schedule: Q01DX001 (ip), vehicle: saline with Tween-80", "result": "102 % of control"}
    ]},
    {"smiles": "CCCCCCCCOC(=O)c1cc([N+](=O)[O-])c(Sc2ncnc3nc[nH]c23)c([N+](=O)[O-])c1", "values": [
      {"measurement": "T/C", "setting": "dose: 11.0 mg/kg/injection, schedule: Q01DX005 (ip), vehicle: other", "result": "112 % of control"},
      {"measurement": "T/C", "setting": "dose: 12.5 mg/kg/injection, schedule: Q01DX005 (ip), vehicle: other", "result": "115 % of control"},
      {"measurement": "T/C", "setting": "dose: 25.0 mg/kg/injection, schedule: Q01DX005 (ip), vehicle: other", "result": "172 % of control"},
      {"measurement": "T/C", "setting": "dose: 50.0 mg/kg/injection, schedule: Q01DX005 (ip), vehicle: other", "result": "118 % of control"},
      {"measurement": "T/C", "setting": "dose: 100.0 mg/kg/injection, schedule: Q01DX005 (ip), vehicle: other", "result": "107 % of control"}
    ]},
    {"smiles": "CC(C)c1oc(=O)cc2c1C(O)C1OC(=O)C3(C)C(O)C4OC4C2(C)C13", "note": "(configuration not stated) (tested in a mixture with another compound)", "values": [
      {"measurement": "T/C", "setting": "[6]", "result": "105 % of control"}
    ]},
    {"smiles": "O=C1c2ccccc2CCC1(Br)Cc1ccccc1", "note": "(configuration not stated)", "values": [
      {"measurement": "T/C", "setting": "[4]", "result": "98 % of control"},
      {"measurement": "T/C", "setting": "[7]", "result": "96 % of control"},
      {"measurement": "T/C", "setting": "dose: 400.0 mg/kg/injection, schedule: Q01DX001 (ip), vehicle: saline with Tween-80", "result": "94 % of control"}
    ]},
    {"smiles": "Cc1cc2ncn(CO)c2cc1C", "values": [
      {"measurement": "T/C", "setting": "[5]", "result": "105 % of control"},
      {"measurement": "T/C", "setting": "[8]", "result": "100 % of control"},
      {"measurement": "T/C", "setting": "[9]", "result": "111 % of control"}
    ]}
  ]
}
